Assay results: patent US5413990A, “N-terminus modified analogs of LHRH” (Tap Pharmaceuticals Inc., priority 1993, dated 1995)
Square brackets hold non-standard residues; d marks the D form. Peptide text beside a SMILES is read from it. * marks the point of attachment. dPhe(4-Cl) = N[C@H](Cc1ccc(Cl)cc1)C(=O)O; d2Nal = N[C@H](Cc1ccc2ccccc2c1)C(=O)O; Cyclopentanecarbonyl = O=C(C1CCCC1)*; Lys(iPr) = CC(C)NCCCC[C@H](N)C(=O)O; NMeY = CN[C@@H](Cc1ccc(O)cc1)C(=O)O; Cyclohexylacetyl = O=C(CC1CCCCC1)*; Cyclopropanecarbonyl = O=C(C1CC1)*; Hydrocinnamoyl = O=C(CCc1ccccc1)*; d3Pal = N[C@H](Cc1cccnc1)C(=O)O; Nicotinoyl = O=C(c1cccnc1)*; Methoxyacetyl = COCC(=O)*; Isobutyryl = CC(C)C(=O)*; PhAc = O=C(Cc1ccccc1)*; Propionyl = CCC(=O)*; Butyryl = CCCC(=O)*; Bz = O=C(c1ccccc1)*; X4 = N#CCC(=O)*; For = O=C*

Target: T1, LHRH (Rattus norvegicus, UniProt P30969)
T1 construct: evaluated in an in vitro test for LHRH antagonist potency (pA2); endogenous in cells; host or cells: pituitary cells (rat, from my own knowledge of the cited method)
T1 sequence (P30969 1-327): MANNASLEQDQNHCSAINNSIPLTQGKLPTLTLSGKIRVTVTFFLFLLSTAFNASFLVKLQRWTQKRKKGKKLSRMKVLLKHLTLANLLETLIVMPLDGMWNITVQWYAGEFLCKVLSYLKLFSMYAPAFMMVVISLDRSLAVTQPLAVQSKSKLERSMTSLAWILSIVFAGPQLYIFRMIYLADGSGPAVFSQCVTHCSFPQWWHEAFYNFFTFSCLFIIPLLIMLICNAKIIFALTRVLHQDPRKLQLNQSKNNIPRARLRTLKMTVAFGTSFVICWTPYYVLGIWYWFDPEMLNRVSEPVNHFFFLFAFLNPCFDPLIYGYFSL
Test: in vitro test for LHRH antagonist potency (pA2)
Type: cell-based
Settings: negative logarithm of the antagonist concentration required to shift the response curve produced by the agonist leuprolide to two-fold higher concentration
Experimental: Representative compounds of the present invention were evaluated in an in vitro test for LHRH antagonist potency (pA2). The test employed the method detailed in F. Haviv, et al. J. Med. Chem., 32:2340-2344 (1989). The values of pA2 are the negative logarithms of the concentration of the particular antagonist test compound required to shift the response curve produced by the agonist leuprolide to two-fold higher concentration. (Leuprolide is the LHRH agonist having the structure 5-oxo-Pro^1 -His^2 -Trp^3 -Ser^4 -Tyr^5 -D-Leu^6 -Leu^7 -Arg^8 -Pro^9 -NHEt and is disclosed and claimed in U.S. Pat. No. 4,005,063.) Typically pA2 values of 9.5 or greater are indicative of good LHRH antagonist potency, with values of 10.0 or greater being preferred.

SMILES: CC(C)C[C@H](NC(=O)[C@@H](CCCCNC(=O)c1cccnc1)NC(=O)[C@H](Cc1ccc(O)cc1)N(C)C(=O)[C@H](CO)NC(=O)[C@@H](Cc1cccnc1)NC(=O)[C@@H](Cc1ccc(Cl)cc1)NC(=O)[C@@H](Cc1ccc2ccccc2c1)NC=O)C(=O)N[C@@H](CCCCNC(C)C)C(=O)N1CCC[C@H]1C(=O)N[C@H](C)C(N)=O [Example 1, N-Formyl-D2Nal-D4ClPhe-D3Pal-Ser-NMeTyr-DLys(Nicotinyl)-Leu-Lys(N-epsilon-lsopropyl)-Pro-DAlaNH2] (For-[d2Nal][dPhe(4-Cl)][d3Pal]S[NMeY][dK](Nicotinoyl)L[Lys(iPr)]P[dA]-NH2)
- Kb: 0.00158 nM

SMILES: CCC(=O)N[C@H](Cc1ccc2ccccc2c1)C(=O)N[C@H](Cc1ccc(Cl)cc1)C(=O)N[C@H](Cc1cccnc1)C(=O)N[C@@H](CO)C(=O)N(C)[C@@H](Cc1ccc(O)cc1)C(=O)N[C@H](CCCCNC(=O)c1cccnc1)C(=O)N[C@@H](CC(C)C)C(=O)N[C@@H](CCCCNC(C)C)C(=O)N1CCC[C@H]1C(=O)N[C@H](C)C(N)=O [Example 2a, N-Propionyl-D2Nal-D4ClPhe-D3Pal-Ser-NMeTyr-DLys(N-epsilon-Nicotinyl)-Leu-Lys(N-epsilon-Isopropyl)-Pro-DAlaNH 2] (Propionyl-[d2Nal][dPhe(4-Cl)][d3Pal]S[NMeY][dK](Nicotinoyl)L[Lys(iPr)]P[dA]-NH2)
- Kb: 0.00501 nM

SMILES: CCCC(=O)N[C@H](Cc1ccc2ccccc2c1)C(=O)N[C@H](Cc1ccc(Cl)cc1)C(=O)N[C@H](Cc1cccnc1)C(=O)N[C@@H](CO)C(=O)N(C)[C@@H](Cc1ccc(O)cc1)C(=O)N[C@H](CCCCNC(=O)c1cccnc1)C(=O)N[C@@H](CC(C)C)C(=O)N[C@@H](CCCCNC(C)C)C(=O)N1CCC[C@H]1C(=O)N[C@H](C)C(N)=O [Example 2b, N-Butyryl-D2Nal-D4ClPhe-D3Pal-Ser-NMeTyr-DLys(N-epsilon-Nicotinyl)-Leu-Lys(N-epsilon-Isopropyl)-Pro-DAlaNH 2] (Butyryl-[d2Nal][dPhe(4-Cl)][d3Pal]S[NMeY][dK](Nicotinoyl)L[Lys(iPr)]P[dA]-NH2)
- Kb: 0.00891 nM

SMILES: CC(C)C[C@H](NC(=O)[C@@H](CCCCNC(=O)c1cccnc1)NC(=O)[C@H](Cc1ccc(O)cc1)N(C)C(=O)[C@H](CO)NC(=O)[C@@H](Cc1cccnc1)NC(=O)[C@@H](Cc1ccc(Cl)cc1)NC(=O)[C@@H](Cc1ccc2ccccc2c1)NC(=O)C(C)C)C(=O)N[C@@H](CCCCNC(C)C)C(=O)N1CCC[C@H]1C(=O)N[C@H](C)C(N)=O [Example 2c, N-Isobutyryl-D2Nal-D4ClPhe-D3Pal- Ser-NMeTyr-DLys(N-epsilon-Nicotinyl)-Leu-Lys(N-epsilon-Isopropyl)-Pro-DAlaNH2] (Isobutyryl-[d2Nal][dPhe(4-Cl)][d3Pal]S[NMeY][dK](Nicotinoyl)L[Lys(iPr)]P[dA]-NH2)
- Kb: 0.0178 nM

SMILES: COCC(=O)N[C@H](Cc1ccc2ccccc2c1)C(=O)N[C@H](Cc1ccc(Cl)cc1)C(=O)N[C@H](Cc1cccnc1)C(=O)N[C@@H](CO)C(=O)N(C)[C@@H](Cc1ccc(O)cc1)C(=O)N[C@H](CCCCNC(=O)c1cccnc1)C(=O)N[C@@H](CC(C)C)C(=O)N[C@@H](CCCCNC(C)C)C(=O)N1CCC[C@H]1C(=O)N[C@H](C)C(N)=O [Example 2d, N-Methoxyacetyl-D2Nal-D4ClPhe-D3Pal-Ser-NMeTyr-DLys(N-epsilon-Nicotinyl)-Leu-Lys(N-epsilon-Isopropyl)-Pro-DAlaNH 2] (Methoxyacetyl-[d2Nal][dPhe(4-Cl)][d3Pal]S[NMeY][dK](Nicotinoyl)L[Lys(iPr)]P[dA]-NH2)
- Kb: 0.00724 nM

SMILES: CC(C)C[C@H](NC(=O)[C@@H](CCCCNC(=O)c1cccnc1)NC(=O)[C@H](Cc1ccc(O)cc1)N(C)C(=O)[C@H](CO)NC(=O)[C@@H](Cc1cccnc1)NC(=O)[C@@H](Cc1ccc(Cl)cc1)NC(=O)[C@@H](Cc1ccc2ccccc2c1)NC(=O)CC#N)C(=O)N[C@@H](CCCCNC(C)C)C(=O)N1CCC[C@H]1C(=O)N[C@H](C)C(N)=O [Example 2e, N-Cyanoacetyl-D2Nal-D4ClPhe-D3Pal-Ser-NMeTyr-DLys(N-epsilon-Nicotinyl)-Leu- Lys(N-epsilon-Isopropyl)-Pro-DAlaNH2] (X4-[d2Nal][dPhe(4-Cl)][d3Pal]S[NMeY][dK](Nicotinoyl)L[Lys(iPr)]P[dA]-NH2)
- Kb: 0.00316 nM

SMILES: CC(C)C[C@H](NC(=O)[C@@H](CCCCNC(=O)c1cccnc1)NC(=O)[C@H](Cc1ccc(O)cc1)N(C)C(=O)[C@H](CO)NC(=O)[C@@H](Cc1cccnc1)NC(=O)[C@@H](Cc1ccc(Cl)cc1)NC(=O)[C@@H](Cc1ccc2ccccc2c1)NC(=O)C1CC1)C(=O)N[C@@H](CCCCNC(C)C)C(=O)N1CCC[C@H]1C(=O)N[C@H](C)C(N)=O [Example 2f, N-Cyclopropylcarbonyl-D2Nal-D4ClPhe- D3Pal-Ser-NMeTyr-DLys(N-epsilon-Nicotinyl)-Leu-Lys(N-epsilon-Isopropyl)-Pro-DAlaNH 2] (Cyclopropanecarbonyl-[d2Nal][dPhe(4-Cl)][d3Pal]S[NMeY][dK](Nicotinoyl)L[Lys(iPr)]P[dA]-NH2)
- Kb: 0.00355 nM

SMILES: CC(C)C[C@H](NC(=O)[C@@H](CCCCNC(=O)c1cccnc1)NC(=O)[C@H](Cc1ccc(O)cc1)N(C)C(=O)[C@H](CO)NC(=O)[C@@H](Cc1cccnc1)NC(=O)[C@@H](Cc1ccc(Cl)cc1)NC(=O)[C@@H](Cc1ccc2ccccc2c1)NC(=O)C1CCCC1)C(=O)N[C@@H](CCCCNC(C)C)C(=O)N1CCC[C@H]1C(=O)N[C@H](C)C(N)=O [Example 2g, N-Cyclopentylcarbonyl-D2Nal-D4ClPhe-D3Pal-Ser-NMeTyr-DLys(N-epsilon-Nicotinyl)-Leu-Lys(N-epsilon-lsopropyl)-Pro-DAlaNH 2] (Cyclopentanecarbonyl-[d2Nal][dPhe(4-Cl)][d3Pal]S[NMeY][dK](Nicotinoyl)L[Lys(iPr)]P[dA]-NH2)
- Kb: 0.0708 nM

SMILES: CC(C)C[C@H](NC(=O)[C@@H](CCCCNC(=O)c1cccnc1)NC(=O)[C@H](Cc1ccc(O)cc1)N(C)C(=O)[C@H](CO)NC(=O)[C@@H](Cc1cccnc1)NC(=O)[C@@H](Cc1ccc(Cl)cc1)NC(=O)[C@@H](Cc1ccc2ccccc2c1)NC(=O)CC1CCCCC1)C(=O)N[C@@H](CCCCNC(C)C)C(=O)N1CCC[C@H]1C(=O)N[C@H](C)C(N)=O [Example 2i, N-Cyclohexylacetyl-D2Nal-D4ClPhe-D3Pal-Ser-NMeTyr-DLys(N-epsilon-Nicotinyl)-Leu-Lys(N-epsilon-Isopropyl)-Pro-DAlaNH 2] (Cyclohexylacetyl-[d2Nal][dPhe(4-Cl)][d3Pal]S[NMeY][dK](Nicotinoyl)L[Lys(iPr)]P[dA]-NH2)
- Kb: 1.58 nM

SMILES: CC(C)C[C@H](NC(=O)[C@@H](CCCCNC(=O)c1cccnc1)NC(=O)[C@H](Cc1ccc(O)cc1)N(C)C(=O)[C@H](CO)NC(=O)[C@@H](Cc1cccnc1)NC(=O)[C@@H](Cc1ccc(Cl)cc1)NC(=O)[C@@H](Cc1ccc2ccccc2c1)NC(=O)c1ccccc1)C(=O)N[C@@H](CCCCNC(C)C)C(=O)N1CCC[C@H]1C(=O)N[C@H](C)C(N)=O [Example 2j, N-Benzoyl-D2Nal-D4ClPhe-D3Pal-Ser-NMeTyr-DLys(N-epsilon-Nicotinyl)-Leu-Lys(N-epsilon-Isopropyl)-Pro-DAlaNH2] (Bz-[d2Nal][dPhe(4-Cl)][d3Pal]S[NMeY][dK](Nicotinoyl)L[Lys(iPr)]P[dA]-NH2)
- Kb: 0.0501 nM

SMILES: CC(C)C[C@H](NC(=O)[C@@H](CCCCNC(=O)c1cccnc1)NC(=O)[C@H](Cc1ccc(O)cc1)N(C)C(=O)[C@H](CO)NC(=O)[C@@H](Cc1cccnc1)NC(=O)[C@@H](Cc1ccc(Cl)cc1)NC(=O)[C@@H](Cc1ccc2ccccc2c1)NC(=O)Cc1ccccc1)C(=O)N[C@@H](CCCCNC(C)C)C(=O)N1CCC[C@H]1C(=O)N[C@H](C)C(N)=O [Example 2k, N-Phenylacetyl-D2Nal-D4ClPhe-D3Pal-Ser-NMeTyr-DLys(N-epsilon-Nicotinyl)-Leu-Lys(N-epsilon-Isopropyl)-Pro-DAlaNH2] (PhAc-[d2Nal][dPhe(4-Cl)][d3Pal]S[NMeY][dK](Nicotinoyl)L[Lys(iPr)]P[dA]-NH2)
- Kb: 0.0141 nM

SMILES: CC(C)C[C@H](NC(=O)[C@@H](CCCCNC(=O)c1cccnc1)NC(=O)[C@H](Cc1ccc(O)cc1)N(C)C(=O)[C@H](CO)NC(=O)[C@@H](Cc1cccnc1)NC(=O)[C@@H](Cc1ccc(Cl)cc1)NC(=O)[C@@H](Cc1ccc2ccccc2c1)NC(=O)CCc1ccccc1)C(=O)N[C@@H](CCCCNC(C)C)C(=O)N1CCC[C@H]1C(=O)N[C@H](C)C(N)=O [Example 2l, N-3-Phenylpropionyl-D2Nal-D4ClPhe-D3Pal-Ser-NMeTyr-DLys(N-epsilon-Nicotinyl)-Leu-Lys(N-epsilon-Isopropyl)-Pro-DAlaNH 2] (Hydrocinnamoyl-[d2Nal][dPhe(4-Cl)][d3Pal]S[NMeY][dK](Nicotinoyl)L[Lys(iPr)]P[dA]-NH2)
- Kb: 0.0126 nM
